# Source: patent US10822323B2, “Acid labile surfactants” (Waters Technologies Corporation, priority 2018, dated 2020)
# Experiment: Dissolution study of hydrophobic moieties in acetonitrile / 20 mM ammonium bicarbonate buffer solutions
# Type: physicochemical
# Conditions: for Observed Solubility: 21° C.; for solubility: 21 °C, aqueous with cosolvent or surfactant or cyclodextrin, thermodynamic from solid
# Procedure: A dissolution study was performed on compounds 3 (commercially available—Sigma Aldrich P/N 172839 99%) 6, and 8 (Synthesis described above) at 21° C. in different buffer solutions containing a mixture of standard chromatographic solvents, e.g., acetonitrile and 20 mM aqueous […]. 20 mM aqueous ammonium bicarbonate was made by dissolving 474 mg ammonium bicarbonate in 300 mL MiliQ water.
# [1] = 10% acetonitrile buffer solution, stated weight in stated buffer volume (3: 180 mL; 6: 120 mL; 8: 24 mL)
# [2] = 30% acetonitrile buffer solution, stated weight in stated buffer volume (3: 50 mL; 6: 10 mL; 8: 1.4 mL)
# [3] = 10 mL acetonitrile and 90 mL 20 mM ammonium bicarbonate (10% acetonitrile)
# [4] = 30 mL acetonitrile and 70 mL 20 mM ammonium bicarbonate (30% acetonitrile)
Observed Solubility [1],Observed Solubility [2],solubility [3] [µg/mL],solubility [4] [µg/mL],"Observed Solubility (30% acetonitrile buffer solution, stated weight in stated buffer volume (3: 50 mL; 6: 10 mL; 8: 1.4 mL), 70 mg in 10 mL buffer)","Observed Solubility (30% acetonitrile buffer solution, stated weight in stated buffer volume (3: 50 mL; 6: 10 mL; 8: 1.4 mL), 90 mg in 10 mL buffer)",SMILES
At 6 mg: Not dissolved,At 30 mg: Not dissolved,< 30,< 1000,–,–,"CCCCCCCCCCCC(C)=O [Compound 3, reference compound]"
At 6 mg: Not dissolved,–,< 50,~8000,At 70 mg: Dissolved,At 90 mg: Not dissolved,"CCCCCCCCCCCOCC(O)CO (stereo not drawn) [Compound 6, 3-(undecyloxy)-1,2-propanediol]"
–,At 200 mg: Dissolved,~500,~140000,–,–,"CCCCCCCCCOCC(O)CO (stereo not drawn) [Compound 8, 3-nonoxypropane-1,2-diol]"
